The conditions of data set [1]: rat, microsomes.
A short description of data set [2]: in vitro. As to conditions: PAMPA.

“7-fluoro-4-(2-(piperidin-1-yl)ethyl)-1-thioxo-2,4-dihydro-[1,2,4]triazolo[4,3-a]quinazolin-5(1H)-one [Example 49]”: the “t1/2 (min, RLM)” value in data set [1] is recorded as above 30 min.
`Cc1noc(C)c1C=CC(=O)NCCCn1c(=O)c2cc(F)ccc2n2c(=S)[nH]nc12` [compound 121, 3-(3,5-dimethylisoxazol-4-yl)-N-(3-(7-fluoro-5-oxo-1-thioxo-1,2-dihydro-[1,2,4]triazolo[4,3-a]quinazolin-4(5H)-yl)propyl)propenamide] showed a Papp in data set [2] of 27.6 ×10⁻⁶ cm/s.

The term Papp denotes a coefficient for how fast a substance crosses the barrier. Lower therefore signals slow passage.

The values are drawn from US20230365568A1, “PLK1 POLO BOX DOMAIN INHIBITORS AND METHOD OF TREATING CANCER” (The United States of America,as represented by the …, priority 2020, published 2023).
